The results in this text go back to patent US10568876B2, “Tetrahydroisoquinoline derivatives useful as inhibitors of diacylglyceride O-acyltransferase 2” (Merck Sharp & Dohme Corp., priority 2014, dated 2020).

hDGAT2, sequence (Q96PD7 whole entry): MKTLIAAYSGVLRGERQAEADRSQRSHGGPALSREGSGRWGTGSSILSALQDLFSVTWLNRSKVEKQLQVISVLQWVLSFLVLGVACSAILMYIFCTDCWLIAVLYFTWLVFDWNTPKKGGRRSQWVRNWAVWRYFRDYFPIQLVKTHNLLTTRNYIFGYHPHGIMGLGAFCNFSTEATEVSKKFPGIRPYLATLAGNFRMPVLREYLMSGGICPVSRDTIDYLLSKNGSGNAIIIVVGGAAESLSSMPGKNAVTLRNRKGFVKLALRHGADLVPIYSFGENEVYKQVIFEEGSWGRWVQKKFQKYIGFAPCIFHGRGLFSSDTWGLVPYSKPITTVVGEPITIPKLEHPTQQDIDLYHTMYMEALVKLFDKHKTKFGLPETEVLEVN

The experiment has as its target hDGAT2 (Homo sapiens (Human), UniProt Q96PD7). Briefly: DGAT2 Enzymatic Activity Assay. The class given is biochemical. To be noted: hDGAT2 Sf-9 membrane prep; 25 μM diolein, 10 μM oleoyl-CoA; triolein product by LC/MS/MS; read-out: IC50 values for inhibition of DGAT2. An outline of the steps: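 Membranes from Sf-9 cells expressing untagged hDGAT2 (10 ng/μL) incubated at room temperature with 25 μM diolein and 10 μM oleoyl-CoA in 100 mM Tris pH 7.0, 20 mM MgCl2, 5% ethanol. Triolein product quantified by LC/MS/MS against spiked internal standard; IC50 from 4-parameter sigmoidal fit.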
With `COC(=O)c1cccc(-c2ccc(CNC(=O)C3CC3c3ccccc3)c3c2CCN(C(=O)c2c[nH]nc2C2CC2)C3)c1` (centres unmarked) [Example 121, methyl 3-(2-(3-cyclopropyl-1H-pyrazole-4-carbonyl)-8-((2-phenylcyclopropanecarboxamido)methyl)-1,2,3,4-tetrahydroisoquinolin-5-yl)benzoate], the half-maximal inhibitory concentration (IC50) was found to be 632 nM.
The value for `COC(=O)c1cccc(-c2ccc(CNC(=O)C3CC3c3ccccc3)c3c2CCN(C(=O)c2cnoc2C(C)C)C3)c1` (centres unmarked) [Example 122, methyl 3-(2-(5-isopropylisoxazole-4-carbonyl)-8-((2-phenylcyclopropanecarboxamido)methyl)-1,2,3,4-tetrahydroisoquinolin-5-yl)benzoate] was 5500 nM; that for `COC(=O)c1cccc(-c2ccc(CNC(=O)C3CC3c3ccccc3)c3c2CCN(C(=O)C2(C(F)(F)F)CC2)C3)c1` (centres unmarked) [Example 123, methyl 3-(8-((2-phenylcyclopropanecarboxamido)methyl)-2-(1-(trifluoromethyl)cyclopropanecarbonyl)-1,2,3,4-tetrahydroisoquinolin-5-yl)benzoate] was 1320 nM.
Then `COC(=O)c1cccc(-c2ccc(CNC(=O)C3CC3c3ccccc3)c3c2CCN(C(=O)c2cccc(-n4cccc4)c2)C3)c1` (centres unmarked) [Example 124, methyl 3-(2-(3-(1H-pyrrol-1-yl)benzoyl)-8-((2-phenylcyclopropanecarboxamido)methyl)-1,2,3,4-tetrahydroisoquinolin-5-yl)benzoate], with 5490 nM; and `COC(=O)c1cccc(-c2ccc(CNC(=O)C3CC3c3ccccc3)c3c2CCN(C(=O)CC2CC2)C3)c1` (centres unmarked) [Example 125, methyl 3-(2-(2-cyclopropylacetyl)-8-((2-phenylcyclopropanecarboxamido)methyl)-1,2,3,4-tetrahydroisoquinolin-5-yl)benzoate], with 209 nM; and `COCCC(=O)N1CCc2c(-c3cccc(C(=O)OC)c3)ccc(CNC(=O)C3CC3c3ccccc3)c2C1` (centres unmarked) [Example 126, methyl 3-(2-(3-methoxypropanoyl)-8-((2-phenylcyclopropanecarboxamido)methyl)-1,2,3,4-tetrahydroisoquinolin-5-yl)benzoate], with 1770 nM.
Then `COC(=O)c1cccc(-c2ccc(CNC(=O)C3CC3c3ccccc3)c3c2CCN(C(=O)CCC(F)(F)F)C3)c1` (centres unmarked) [Example 127, methyl 3-(8-((2-phenylcyclopropanecarboxamido)methyl)-2-(4,4,4-trifluorobutanoyl)-1,2,3,4-tetrahydroisoquinolin-5-yl)benzoate], with 1220 nM; and `COC(=O)c1cccc(-c2ccc(CNC(=O)C3CC3c3ccccc3)c3c2CCN(C(=O)C2(C#N)CC2)C3)c1` (centres unmarked) [Example 128, methyl 3-(2-(1-cyanocyclopropanecarbonyl)-8-((2-phenylcyclopropanecarboxamido)methyl)-1,2,3,4-tetrahydroisoquinolin-5-yl)benzoate], with 1590 nM.
For the compound `COC(=O)c1cccc(-c2ccc(CNC(=O)C3CC3c3ccccc3)c3c2CCN(C(=O)CC(F)(F)F)C3)c1` (centres unmarked) [Example 129, methyl 3-(8-((2-phenylcyclopropanecarboxamido)methyl)-2-(3,3,3-trifluoropropanoyl)-1,2,3,4-tetrahydroisoquinolin-5-yl)benzoate], the IC50 turned out to be 1820 nM.
The value for `COC(=O)c1cccc(-c2ccc(CNC(=O)C3CC3c3ccccc3)c3c2CCN(C(=O)C(C)C)C3)c1` (centres unmarked) [Example 130, methyl 3-(2-isobutyryl-8-((2-phenylcyclopropanecarboxamido)methyl)-1,2,3,4-tetrahydroisoquinolin-5-yl)benzoate] was 281 nM.
As to `COC(=O)c1cccc(-c2ccc(CNC(=O)C3CC3c3ccccc3)c3c2CCN(C(=O)C2CC2C)C3)c1` (centres unmarked) [Example 131, methyl 3-(2-(2-methylcyclopropanecarbonyl)-8-((2-phenylcyclopropanecarboxamido)methyl)-1,2,3,4-tetrahydroisoquinolin-5-yl)benzoate], the 50% inhibitory concentration (IC50) was determined as 360 nM.
Then `COC(=O)c1cccc(-c2ccc(CNC(=O)C3CC3c3ccccc3)c3c2CCN(C(=O)C2(C)CC2)C3)c1` (centres unmarked) [Example 132, methyl 3-(2-(1-methylcyclopropanecarbonyl)-8-((2-phenylcyclopropanecarboxamido)methyl)-1,2,3,4-tetrahydroisoquinolin-5-yl)benzoate], with 522 nM.
The value for `COC(=O)c1cccc(-c2ccc(CNC(=O)C3CC3c3ccccc3)c3c2CCN(C(=O)c2ccncc2)C3)c1` (centres unmarked) [Example 133, methyl 3-(2-isonicotinoyl-8-((2-phenylcyclopropanecarboxamido)methyl)-1,2,3,4-tetrahydroisoquinolin-5-yl)benzoate] was 2510 nM.
Then `COC(=O)c1cccc(-c2ccc(CNC(=O)C3CC3c3ccccc3)c3c2CCN(C(=O)c2cccnc2)C3)c1` (centres unmarked) [Example 134, methyl 3-(2-nicotinoyl-8-((2-phenylcyclopropanecarboxamido)methyl)-1,2,3,4-tetrahydroisoquinolin-5-yl)benzoate], with 3560 nM; and `CCOCC(=O)N1CCc2c(-c3cccc(C(=O)OC)c3)ccc(CNC(=O)C3CC3c3ccccc3)c2C1` (centres unmarked) [Example 136, methyl 3-(2-(2-ethoxyacetyl)-8-((2-phenylcyclopropanecarboxamido)methyl)-1,2,3,4-tetrahydroisoquinolin-5-yl)benzoate], with 2170 nM; and `COC(=O)c1cccc(-c2ccc(CNC(=O)C3CC3c3ccccc3)c3c2CCN(C(=O)C2CCC(C)CC2)C3)c1` (centres unmarked) [Example 137, methyl 3-(2-(4-methylcyclohexanecarbonyl)-8-((2-phenylcyclopropanecarboxamido)methyl)-1,2,3,4-tetrahydroisoquinolin-5-yl)benzoate], with 3340 nM.
For `COC(=O)c1cccc(-c2ccc(CNC(=O)C3CC3c3ccccc3)c3c2CCN(C(=O)c2ccccc2)C3)c1` (centres unmarked) [Example 138, methyl 3-(2-benzoyl-8-((2-phenylcyclopropanecarboxamido)methyl)-1,2,3,4-tetrahydroisoquinolin-5-yl)benzoate], the IC50 came out at 176 nM.
The value for `COC(=O)c1cccc(-c2ccc(CNC(=O)C3CC3c3ccccc3)c3c2CCN(C(=O)c2ccccc2F)C3)c1` (centres unmarked) [Example 139, methyl 3-(2-(2-fluorobenzoyl)-8-((2-phenylcyclopropanecarboxamido)methyl)-1,2,3,4-tetrahydroisoquinolin-5-yl)benzoate] was 219 nM; that for `COC(=O)c1cccc(-c2ccc(CNC(=O)C3CC3c3ccccc3)c3c2CCN(C(=O)c2cccc(F)c2)C3)c1` (centres unmarked) [Example 140, methyl 3-(2-(3-fluorobenzoyl)-8-((2-phenylcyclopropanecarboxamido)methyl)-1,2,3,4-tetrahydroisoquinolin-5-yl)benzoate] was 1530 nM; that for `COC(=O)c1cccc(-c2ccc(CNC(=O)C3CC3c3ccccc3)c3c2CCN(C(=O)c2ccc(F)cc2)C3)c1` (centres unmarked) [Example 141, methyl 3-(2-(4-fluorobenzoyl)-8-((2-phenylcyclopropanecarboxamido)methyl)-1,2,3,4-tetrahydroisoquinolin-5-yl)benzoate] was 279 nM.

What is called IC50 is the midpoint of a concentration-inhibition curve.
